The test system of this assay is P493-6 (myc "on") cells. The assay can be described thus: Cell Proliferation Assay. Type of assay: cell-based. The following applies: read-out: Cell prolif P493 72 h IC50; P493-6 cells, 72 h incubation. How it is done: P493-6 (myc “on”) cells were maintained in growth media (RPMI-1640, 10% FBS, 2 mM glutamine, 100 units/ml Penicillin and 100 μg/ml streptomycin) at 37° C. with 5% CO2. For compound assay, P493-6 cells were plated in 96-well V-bottom plates on the day of compound addition in 50 μl of growth media at a cell density of 200,000 cells/ml (10,000 cells/well). Compounds were serially diluted in 100% DMSO at 200-times the final concentration. Compounds were diluted 100-fold into growth media and then 50 μl of this mixture was added to cell plates making the final concentration of DMSO 0.5%. Cells were incubated with compound for 72 hrs at 37° C. with 5% CO2 and analyzed for antiproliferative effects either by Cell Titer Glo (Promega) or FACS analysis using the Viacount (Millipore) kit on the Guava instrument.

Broadly, the IC50 is the concentration at which inhibition is half-maximal. In the case of `COc1ccc(OC(F)(F)F)cc1CC(=O)Nc1ccc(CCCCc2nnc(NC(=O)Cc3ccccn3)s2)nn1` [Cmpd 717], the IC50 came to 19 nM.

The values are drawn from patent US10278968B2, “Combination therapy with glutaminase inhibitors” (Calithera Biosciences, Inc., priority 2016, dated 2019).
